Read-outs that look alike come from different tables or passages of the source.
Experiments:
[1] = Competition experiment between Formula I Form I and Formula I Form II in isopropyl acetate; format: physicochemical; conditions: Experiment 26; Form I 11 mg + Mixture II 55.4 mg in IPAc 889 mg; 75 mg/g; suspension
Protocol: A competition experiment between Formula I Form I and Formula I Form II was conducted by mixing Formula I Form I with isopropyl acetate, followed by adding Mixture II, a mixture of Formula I Form II and Formula I Form IV.

[2] = format: physicochemical; conditions: for XRPD: room temperature, two weeks
[3] = Competition experiment between Formula I Form II and Formula I Form IV in IPA/Water at 50° C.; format: physicochemical
[4] = Experiment 023, wt % water 9.3, 1 day in suspension, Temp. 50
[5] = Experiment 030, wt % water 4.9, 1, 3 days in suspension, Temp. 50
[6] = Experiment 033, wt % water 39.5, 3 days in suspension, Temp. 50
[7] = Experiment 034, wt % water 49.9, 1, 3 days in suspension, Temp. 50

Structure (SMILES): CCC(CC)COC(=O)[C@H](C)N[P@](=O)(OC[C@H]1O[C@@](C#N)(c2ccc3c(N)ncnn23)[C@H](O)[C@@H]1O)Oc1ccccc1 [Formula I Form I, (S)-2-ethylbutyl 2-(((S)-(((2R,3S,4R,5R)-5-(4-aminopyrrolo[2,1-f][1,2,4]triazin-7-yl)-5-cyano-3,4-dihydroxytetrahydrofuran-2-yl)methoxy)(phenoxy)phosphoryl)amino)propanoate]
- Comment (form conversion) [1]: Form II in 1 day

Structure (SMILES): CCC(CC)COC(=O)[C@H](C)N[P@](=O)(OC[C@H]1O[C@@](C#N)(c2ccc3c(N)ncnn23)[C@H](O)[C@@H]1O)Oc1ccccc1 [Formula I Form II, (S)-2-ethylbutyl 2-(((S)-(((2R,3S,4R,5R)-5-(4-aminopyrrolo[2,1-f][1,2,4]triazin-7-yl)-5-cyano-3,4-dihydroxytetrahydrofuran-2-yl)methoxy)(phenoxy)phosphoryl)amino)propanoate]
- more stable form ([2]; several competition experiments): more stable form

Structure (SMILES): CCC(CC)COC(=O)[C@H](C)N[P@](=O)(OC[C@H]1O[C@@](C#N)(c2ccc3c(N)ncnn23)[C@H](O)[C@@H]1O)Oc1ccccc1 [Formula I Mixture II, (S)-2-ethylbutyl 2-(((S)-(((2R,3S,4R,5R)-5-(4-aminopyrrolo[2,1-f][1,2,4]triazin-7-yl)-5-cyano-3,4-dihydroxytetrahydrofuran-2-yl)methoxy)(phenoxy)phosphoryl)amino)propanoate]
- DSC [3, 4]: Form II
- XRPD [3, 4]: Form II
- DSC [3, 5]: Form II
- XRPD [3, 5]: Form II
- DSC [3, 6]: Form II
- XRPD [3, 6]: Form II
- DSC [3, 7]: Form II
- XRPD [3, 7]: Form II
- DSC ([3]; Experiment 037, wt % water 0.93, 2 days in suspension, Temp. 50, 22): Form II
- conversion of form ([3]; IPA/Water (3/6 V/V) at 50° C. for several days, all experiments): conversion to Formula I Form II
- Comment (form conversion) [1]: Form II in 1 day

Structure (SMILES): CCC(CC)COC(=O)[C@H](C)N[P@](=O)(OC[C@H]1O[C@@](C#N)(c2ccc3c(N)ncnn23)[C@H](O)[C@@H]1O)Oc1ccccc1 [Formula I, (S)-2-ethylbutyl 2-(((S)-(((2R,3S,4R,5R)-5-(4-aminopyrrolo[2,1-f][1,2,4]triazin-7-yl)-5-cyano-3,4-dihydroxytetrahydrofuran-2-yl)methoxy)(phenoxy)phosphoryl)amino)propanoate]
- XRPD ([2]; Experiment 12, 1-propanol): Partially converted to Form II
- XRPD ([2]; Experiment 14, THF): Partially converted to Form II
- XRPD ([2]; Experiment 16, 2-propanol): Partially converted to Form II
- XRPD ([2]; Experiment 18, ACN): Form II
- XRPD ([2]; Experiment 20, DCM): Partially converted to Form II
- XRPD ([2]; Experiment 22, Ethanol): Form II
- XRPD ([2]; Experiment 24, MTBE): Partially converted to Form II
- XRPD ([2]; Experiment 26, 2MeTHF): Partially converted to Form II
- XRPD ([2]; Experiment 28, EtOAc/water): Form II
- XRPD ([2]; Experiment 30, MEK): Form II
- XRPD ([2]; Experiment 32, Ethanol/water aw 0.4): Form II

Source: US12030906B2, “Crystalline forms of (s)-2-ethylbutyl 2-(((s)-(((2r,3s,4r,5r)-5-(4-aminopyrrolo[2,1-f] [1,2,4]triazin-7-yl)-5-cyano-3,4-dihydroxytetrahydrofuran-2-yl)methoxy) (phenoxy) phosphoryl)amino)propanoate” (priority 2017, dated 2024)
